Assay results as given in the NIST ThermoML archive (doi:10.1016/j.fluid.2010.01.019).

Settings: Liquid, Vibrating tube method

CCCCC(=O)OCC(COCC(COC(=O)CCCC)(COC(=O)CCCC)COC(=O)CCCC)(COC(=O)CCCC)COC(=O)CCCC
mass density [kg/m3]
Settings	100 kPa	1000 kPa	5000 kPa	10000 kPa	20000 kPa	30000 kPa	40000 kPa	50000 kPa	60000 kPa	70000 kPa
283.15 K	1045	1045.5	1047.7	1050.4	1055.8	1060.9	1065.8	1070.5	1075	1079.3
298.15 K	1033.7	1034.2	1036.7	1039.7	1045.4	1050.7	1055.9	1060.8	1065.5	1070
323.15 K	1014.6	1015.2	1018	1021.3	1027.6	1033.5	1039	1044.4	1049.5	1054.3
333.15 K	1007	1007.7	1010.6	1014	1020.6	1026.7	1032.4	1037.9	1043.2	1048.2
348.15 K	995.5	996.3	999.4	1003.1	1010	1016.4	1022.5	1028.3	1033.8	1039.1
373.15 K	975.7	977.3	980.8	984.9	992.5	999.6	1006.2	1012.5	1018.4	1024
398.15 K	957	957.8	961.4	965.9	974.4	982.1	989.3	996.1	1002.4	1008.4

CCCCCCC(=O)OCC(COCC(COC(=O)CCCCCC)(COC(=O)CCCCCC)COC(=O)CCCCCC)(COC(=O)CCCCCC)COC(=O)CCCCCC [dipentaerythritol hexaheptanoate]
mass density [kg/m3]
Settings	100 kPa	1000 kPa	5000 kPa	10000 kPa	20000 kPa	30000 kPa	40000 kPa	50000 kPa	60000 kPa	70000 kPa
283.15 K	1000.3	1000.9	1003.2	1005.9	1011.2	1016.1	1020.8	1025.4	1029.9	1034.2
298.15 K	989.7	990.3	992.8	995.7	1001.3	1006.4	1011.3	1016.1	1020.7	1025.2
323.15 K	971.7	972.2	974.9	978.2	984.4	990.1	995.5	1000.6	1005.6	1010.3
333.15 K	964.4	965.1	967.9	971.3	977.8	983.7	989.3	994.6	999.7	1004.6
348.15 K	953.7	954.4	957.4	961	967.8	974.1	980	985.6	990.9	996
373.15 K	935	936.6	939.9	943.9	951.4	958.3	964.7	970.8	976.5	981.9
398.15 K	917.4	918.2	921.7	926.1	934.4	941.9	948.9	955.5	961.6	967.3
